Measurements from ChEMBL document CHEMBL3616422, “A novel family of diarylpyrimidines (DAPYs) featuring a diatomic linker: Design, synthesis and anti-HIV activities” (Bioorg Med Chem, 2015).

Tests used:
[1] = tested on: Human immunodeficiency virus 1; assay: Antiviral activity against HIV 1 RES056 harboring reverse transcriptase K103N/Y181C double mutant infected in human MT4 cells assessed as protection against virus-induced cytopathogenicity after 5 days by MTT assay; type: functional, organism-based; conditions: Human immunodeficiency virus 1, RES056, MT4, 120 h
[2] = Selectivity index, ratio of CC50 for uninfected human MT4 cells to EC50 for wild type HIV 1 3B infected in human MT4 cells; type: toxicity, cell-based; conditions: uninfected and infected with wild type HIV-1 3B, read-out: Ratio CC50/EC50
[3] = biological target: Human immunodeficiency virus type 1 reverse transcriptase (Human immunodeficiency virus 1, UniProt Q72547); assay: Inhibition of recombinant HIV1 Reverse transcriptase p66/p51 using poly (rA)-oligo (dT) as template primer after 40 mins by spectrofluorometric analysis
[4] = tested on: Human immunodeficiency virus 2; assay: Antiviral activity against wild type HIV 2 ROD infected in human MT4 cells assessed as protection against virus-induced cytopathogenicity after 5 days by MTT assay; type: functional, organism-based; conditions: Human immunodeficiency virus 2, ISOLATE ROD, MT4, 120 h
[5] = Cytotoxicity against uninfected human MT4 cells assessed as decrease in cell viability after 5 days by MTT assay; type: cell-based
[6] = tested on: Human immunodeficiency virus 1; assay: Antiviral activity against wild type HIV 1 3B infected in human MT4 cells assessed as protection against virus-induced cytopathogenicity after 5 days by MTT assay; type: functional, organism-based; conditions: Human immunodeficiency virus 1, 3B, MT4, 120 h

Row | SMILES | EC50 [1] | selectivity ratio [2] | IC50 [3] | EC50 [4] | CC50 at 120 h [5] | EC50 [6]
1 | N#Cc1ccc(Nc2nccc(NCc3ccccc3)n2)cc1 | > 0.48 µg/mL | 294 | 20 nM | > 0.48 µg/mL | 1590 nM | 5.3 nM
2 | N#Cc1ccc(Nc2nccc(NCc3ccccc3Cl)n2)cc1 | > 92.3 µg/mL | 18600 | 24 nM | > 92.3 µg/mL | 275000 nM | 14.9 nM
3 | N#Cc1ccc(Nc2nccc(NCc3cccc(Cl)c3)n2)cc1 | > 0.7 µg/mL | 175 | 18 nM | > 0.7 µg/mL | 2080 nM | 11.9 nM
4 | N#Cc1ccc(Nc2nccc(NCc3ccc(Cl)cc3)n2)cc1 | > 1.1 µg/mL | 71 | 48 nM | > 1.1 µg/mL | 3280 nM | 47.6 nM
5 | N#Cc1ccc(Nc2nccc(NCc3ccccc3Br)n2)cc1 | > 74.1 µg/mL | 4680 | 71 nM | > 74.1 µg/mL | 195000 nM | 42.1 nM
6 | N#Cc1ccc(Nc2nccc(NCc3cccc(Br)c3)n2)cc1 | > 0.67 µg/mL | 86 | 24 nM | > 0.67 µg/mL | 1760 nM | 20.3 nM
7 | N#Cc1ccc(Nc2nccc(NCc3ccc(Br)cc3)n2)cc1 | > 1.28 µg/mL | 85 | 29 nM | > 1.28 µg/mL | 3370 nM | 39.4 nM
8 | N#Cc1ccc(Nc2nccc(NCc3ccccc3F)n2)cc1 | > 0.88 µg/mL | 1080 | 16 nM | > 0.88 µg/mL | 2760 nM | 2.6 nM
9 | N#Cc1ccc(Nc2nccc(NCc3cccc(F)c3)n2)cc1 | > 0.45 µg/mL | 333 | 16 nM | > 0.45 µg/mL | 1410 nM | 4.4 nM
10 | N#Cc1ccc(Nc2nccc(NCc3ccc(F)cc3)n2)cc1 | > 0.55 µg/mL | 23 | 382 nM | > 0.55 µg/mL | 1720 nM | 72 nM
11 | Cc1ccc(CNc2ccnc(Nc3ccc(C#N)cc3)n2)cc1 | > 0.79 µg/mL | 297 | 13 nM | > 0.79 µg/mL | 2500 nM | 8.2 nM
12 | COc1ccccc1CNc1ccnc(Nc2ccc(C#N)cc2)n1 | > 27.3 µg/mL | 937 | 936 nM | > 27.3 µg/mL | 82400 nM | 87.5 nM
13 | COc1cccc(CNc2ccnc(Nc3ccc(C#N)cc3)n2)c1 | > 0.79 µg/mL | 518 | 18 nM | > 0.79 µg/mL | 2380 nM | 4.5 nM
14 | COc1ccc(CNc2ccnc(Nc3ccc(C#N)cc3)n2)cc1 | > 0.78 µg/mL | 60 | 85 nM | > 0.78 µg/mL | 2350 nM | 39.3 nM
15 | N#Cc1ccc(Nc2nccc(NCc3ccccc3C(F)(F)F)n2)cc1 | > 41.6 µg/mL | 107 | 1540 nM | > 41.6 µg/mL | 113000 nM | 1060 nM
16 | N#Cc1ccc(Nc2nccc(NCc3cccc(C(F)(F)F)c3)n2)cc1 | > 0.71 µg/mL | 9 | 122 nM | > 0.71 µg/mL | 1920 nM | 206 nM
17 | N#Cc1ccc(Nc2nccc(NCc3ccc(C(F)(F)F)cc3)n2)cc1 | > 1.11 µg/mL | 24 | 70 nM | > 1.11 µg/mL | 3010 nM | 127 nM
18 | Cc1ccc(CNc2ccnc(Nc3ccc(C#N)cc3)n2)cc1C | > 1.21 µg/mL | 1190 | 9 nM | > 1.21 µg/mL | 3670 nM | 3 nM
19 | N#Cc1ccc(Nc2nccc(NCc3ccc(F)cc3F)n2)cc1 | > 1.41 µg/mL | 245 | 56 nM | > 1.41 µg/mL | 4180 nM | 16.9 nM
20 | O=C1Nc2ccc(Cl)cc2[C@@](C#CC2CC2)(C(F)(F)F)O1 [EFAVIRENZ] |  |  |  |  | > 6340 nM | 6.3 nM
21 | Cc1cc(C#N)cc(C)c1Oc1nc(Nc2ccc(C#N)cc2)nc(N)c1Br [ETRAVIRINE] |  |  |  |  | > 4590 nM | 
22 | Cc1ccnc2c1NC(=O)c1cccnc1N2C1CC1 [NEVIRAPINE] | ≥ 2.02 µg/mL |  |  |  | > 15000 nM | 
